{"source": "patent US6969760B2", "about": "“Jak kinases and regulation of cytokine signal transduction” (St. Jude Children's Research Hospital, priority 1993, dated 2005)", "key": {"[1]": {"test_system": "EPO-induced cell proliferation", "settings": "cited from earlier work"}, "Jak2 [2]": {"target": "T1, Jak2 (Mus musculus, UniProt Q62120)", "T1 construct": "endogenous in cells; host or cells: mammalian cells stimulated with EPO or IL-3", "experiment": "In vitro kinase assay with Jak2 immunoprecipitated from cell lysates (32P-gamma-ATP, autoradiography)", "format": "biochemical", "settings": "genestein at 0.1 mM in the in vitro kinase assay", "method": "In this assay, purified Jak2 is precipitated from cell lysates using Jak2-specific antisera bound to protein A-sepharose. The immunoprecipitated Jak2 is then washed with kinase buffer (50 mM NaCl, 5 mM MgCl2, 5 mM MnCl2, 0.1 mM Na3VO4, 10 mM HEPES pH 7.4) and subsequently incubated for 30 minutes at room temperature with an equal volume of kinase buffer containing 0.25 mCi/ml ^32P-gamma-ATP. After extensive washing, proteins are eluted with sample buffer for SDS-PAGE and separated on 7% gels. ^32P-containing proteins are then visualized by autoradiography.\nThus, activation of the Jak2 catalytic activity is correlated with the biological activities of these cytokines."}, "[3]": {"test_system": "tyrosine kinase activity associated with the CNTF receptor complex (gp130, LIFRβ)", "experiment": "In vitro tyrosine kinase activity associated with the purified CNTF receptor complex", "format": "biochemical", "settings": "compared with CNTF-treated intact cells", "quoted_text": "Cell lines were passaged and maintained as previously described (Ip et al., Cell 69:1121-1132 (1992). COS cell transfections were carried out by a DEAE protocol (Davis et al., Science 260:1805-1808 (1993)). Plates of cells were starved in serum-free RPMI medium for 2-4 hours, then stimulated with 50 ng/ml of the indicated factor for 5 minutes. Cells were harvested and lysed as previously described (Stahl et al., J. Biol. Chem. 268:7628-7631 (1993)), except that 1% Brij 96 (Sigma) or 1% NP-40 (Boehringer) was used as indicated. Immunoprecipitation, electrophoresis, and anti-phosphotyrosine immunoblotting with monoclonal antibody 4G10 (Upstate Biotechnology) and detection via enhanced chemiluminescence (Amersham) was carried out as previously described (Id). For in vitro kinase assays, the washed beads were incubated for 15 min at room temperature in 20 mM Hepes (pH 7.2), 10 mM MnCl2, 30 mM sodium orthovanadate and 10 MCi of (g-^32P)ATP (NEN DUPONT). Electrophoresis sample buffer was added and the samples were boiled, subjected to SDS PAGE, and electroblotted to PVDF. The membrane was then incubated in 1 M NaOH at 65° C. for 60 min to destroy serine and threonine phosphate before autoradiography."}, "Jak2 [4]": {"test_system": "Jak2", "experiment": "GH-dependent tyrosyl phosphorylation of Jak2 (αJak2 immunoprecipitation, αPY immunoblot) in 3T3-F442A fibroblasts", "format": "cell-based", "method": "Jak2 is a tyrosine kinase of the correct size (Mr of ˜130,000; see example 1) to be the GHR-associated kinase and was therefore tested for its ability to be phosphorylated in response to GH. Solubilized proteins from GH-treated 3T3-F442A fibroblasts were immunoprecipitated using antiserum to Jak2 (αJak2) and analyzed by anti-phosphotyrosine antibody (αPY) immunoblot. Cells were incubated with varying physiological concentrations of GH in ranging in 10-fold increments from 0.5 ng/ml to 500 ng/ml (the standard concentration used) for 0, 0.5, 5, 50, and 60 minutes.\nCells were grown to confluence and deprived of serum overnight as described previously (Wang, X. et al., J. Biol. Chem. 268:3573-3579 (1993)). Cells were incubated for the indicated times with hormone or growth factor as indicated at 37° C. in 95% air, 5% CO2, rinsed with three changes of ice-cold 10 mM sodium phosphate (pH 7.4), 137 mM NaCl, 1 mM Na3VO4, and scraped in lysis buffer (50 mM Tris (pH 7.5), 0.1% Triton X-100, 137 mM NaCl, 2 mM EGTA, 1 mM Na3VO4, 1 mM phenylmethylsulfonyl fluoride, 10 μg/ml aprotinin, and 10 μg/ml leupeptin) on ice. Cell lysates were centrifuged at 12,000×g for 10 min, and the resulting supernatants were incubated on ice 90 min with the indicated antibody. […]"}}, "note": "“And” between values parts separate entries of the source, which are not always exact repeats. Equal entries are not always repeated.", "data": [{"compound": "O=c1c(-c2ccc(O)cc2)coc2cc(O)cc(O)c12", "note": "[genestein]", "values": [{"measurement": "effect on ability of EPO to stimulate cell growth", "setting": "[1]", "value": "inhibit the ability of EPO to stimulate cell growth"}, {"measurement": "reduction in the tyrosine kinase activity of Jak2", "setting": "Jak2 [2]", "value": 2, "unit": "fold"}]}, {"compound": "CN[C@@H]1C[C@H]2O[C@@](C)([C@@H]1OC)n1c3ccccc3c3c4c(c5c6ccccc6n2c5c31)C(=O)NC4", "note": "[staurosporine]", "values": [{"measurement": "sensitivity of receptor-associated in vitro kinase activity to staurosporine", "setting": "[3]", "value": "same sensitivity to staurosporine as that observed upon addition of CNTF to intact cells"}]}, {"compound": "GH: Recombinant human GH (hGH) provided by Eli Lilly", "values": [{"measurement": "earliest time at which GH-dependent tyrosyl phosphorylation of Jak2 was clearly evident", "setting": "Jak2 [4]", "value": 30, "unit": "s"}, {"measurement": "lowest GH concentration at which tyrosyl phosphorylation of Jak2 was clearly evident", "setting": "Jak2 [4]", "value": "5.0 ng/ml and 230 pM"}]}]}
